Consider 4 molecules from patent publication US20190255078A1, “TOPICAL COMPOSITIONS WITH STABLE SOLUBILIZED SELECTIVE RETINOIDS AND/OR TETRACYCLINE-CLASS ANTIBIOTICS” (BioPharmX, Inc., priority 2018, published 2019).

Structures are written as SMILES.

The nature of data set [1]: Solubility of tazarotene in solvents and solvent mixtures (Example 2). Format: physicochemical. The source says:
Tazarotene is known to have low solubility in many traditional solvent systems. […] However, compositions with ethanol as the only solvent are typically irritating to the skin, have a pungent smell, and leave the skin feeling dry. […] It has been discovered that that mixtures of ethanol and carboxylate esters have higher solubility of tazarotene than would be expected from mixtures of the components individually.
Tazarotene is desirably used in compositions at a concentration of 0.01% to 0.20% (w/w). […].
As shown in Table 5 and FIG. 2, the tazarotene solubility in selected binary and tertiary mixtures was even higher than the solubility of tazarotene in ethanol alone. […] Even small amounts of carboxylate esters can have unexpectedly large effects.
Thus, the tazarotene in selected ranges of binary mixtures was higher than the solubility of tazarotene in the individual components of the solvent mixture.

Data set [2] can be described thus: Stability of tazarotene in solution with antioxidants and/or magnesium chloride (Example 3A). Format: physicochemical. The method, then:
Retinoids can undergo chemical degradation in solutions due to oxidation. However, many antioxidants are not effective in sufficiently stabilizing retinoids in a pharmaceutical composition. A study was performed in which samples consisting of 0.05% (w/w) tazarotene dissolved in 79.15% (w/w) ethanol (anhydrous), 0.6% hydroxypropyl cellulose HF (KLUCEL HF), 20% propylene glycol, and 0.20% (w/w) of an antioxidant were stored in a sealed amber glass container for 8 weeks at 40° C. For the tested composition with no antioxidant, the additional 0.20% was made up with ethanol (anhydrous).
Only one of the antioxidants improved the stability of tazarotene: propyl gallete, reducing the degradation from 5% to 1% over the 8-week period. In contrast, the antioxidant ascorbic acid increased the degradation from 5% to approximately 50% over the 8-week period.
Similarly, divalent cations such as magnesium, are also ineffective in stabilizing tazarotene. A mixture comprising ethanol, 0.6% magnesium chloride, and 0.05% tazarotene was stored in a sealed amber glass container for 13 weeks at 40° C.
A mixture comprising ethanol, 0.6% magnesium chloride, 0.2% sodium metabisulfite, and 0.05% tazarotene was stored in a sealed amber glass container for 13 weeks at 40° C. The tazarotene degraded by 3% over the 13-week period in comparison to 5% degradation for a mixture comprising ethanol and 0.05% tazarotene (and without magnesium chloride or an antioxidant) over the same period. […] Measurements for an additional composition comprising ethanol, 0.20% sodium metabisulfite, and 0.05% tazarotene (without the presence of magnesium chloride) were taken at 0, 1, 2, 4, and 8 weeks. Only the data at 0 and 8 weeks are presented in FIG. 3A for this composition. Data for this composition was not captured at 13 weeks.

The nature of data set [3]: Room temperature stability of tazarotene and minocycline in single and combination compositions (Example 5). Format: physicochemical. As to conditions: 18 months.
Data set [4] can be described thus: Stability of tazarotene in solution with antioxidants and/or magnesium chloride (Example 3A). In kind it is physicochemical. As to conditions: ethanol (anhydrous), sodium metabisulfite, sealed amber glass.
The conditions of data set [5]: cited from earlier work.
The nature of data set [6]: Stability at 40° C. of single and dual API compositions of Table 13-1 (Example 10). Particulars: 6 months.
Procedure: The exemplary compositions comprised tazarotene, minocycline, or a combination thereof. Each composition was stored at room temperature for 2 and 5 weeks in a sealed amber glass container at 40° C.
Data set [7] concerns antibiotic-resistant P. acnes. Particulars: clinical isolates of antibiotic-resistant P. acnes; cited from earlier work.

On to `CCOC(=O)c1ccc(C#Cc2ccc3c(c2)C(C)(C)CCS3)nc1` [tazarotene, ethyl 6-[2-(4,4-dimethyl-2,3-dihydrothiochromen-6-yl)ethynyl]pyridine-3-carboxylate], for which the “tazarotene solubility relative to solubility in ester alone” value in data set [1] (ethanol and at least one carboxylate ester, binary and tertiary mixtures) is 2-5 times. In addition, the “TAZAROTENE SOLUBILITY” value worked out at 39.0 mg/g in data set [1] (ethanol and diisopropyl adipate 1:1 (W/W)); 23.3 mg/g in data set [1] (ethanol and diisopropyl adipate 9:1 (W/W)); 109.42 mg/g in data set [1] (ethanol and dimethyl succinate 20:80 (W/w)); 103.65 mg/g in data set [1] (ethanol and dimethyl succinate 40:60 (W/w)); 67.18 mg/g in data set [1] (ethanol and dimethyl succinate 60:40 (W/w)); 45.30 mg/g in data set [1] (ethanol and dimethyl succinate 80:20 (W/w)). Moreover, the “TAZAROTENE SOLUBILITY” value in data set [1] (ethanol and isopropyl myristate 1:1 (W/W)) turned out to be 37.8 mg/g; in data set [1] (ethanol and isopropyl myristate 9:1 (W/W)), 34.8 mg/g; in data set [1] (ethanol and medium chain triglyceride 1:1 (W/W)), 38.6 mg/g; in data set [1] (ethanol and medium chain triglyceride 9:1 (W/W)) it was 23.5 mg/g; in data set [1] (ethanol and propyl acetate 20:80 (W/w)), 179.99 mg/g; in data set [1] (ethanol and propyl acetate 40:60 (W/w)), 139.85 mg/g. Also, the “TAZAROTENE SOLUBILITY” value was found to be 80.16 mg/g in data set [1] (ethanol and propyl acetate 60:40 (W/w)); 44.12 mg/g in data set [1] (ethanol and propyl acetate 80:20 (W/w)); 10.3 mg/g in data set [1] (ethanol and propylene glycol 1:1 (W/W)); 22.3 mg/g in data set [1] (ethanol and propylene glycol 4:1 (W/W)); 30.3 mg/g in data set [1] (ethanol, glycerol, and isopropyl myristate 7:2:1 (W/W)); 24.9 mg/g in data set [1] (ethanol, propylene glycol, and diisopropyl adipate 7:2:1 (W/W)). For the same molecule, the “TAZAROTENE SOLUBILITY” value in data set [1] (ethanol, propylene glycol, and dimethyl succinate 7:2:1 (W/W)) worked out at 30.1 mg/g; in data set [1] (ethanol, propylene glycol, and isopropyl myristate 7:2:1 (W/W)) it was 32.3 mg/g; in data set [1] (ethanol, propylene glycol, and medium chain triglycerides 7:2:1 (W/W)), 24.4 mg/g; in data set [1] (ethanol, propylene glycol, and propyl acetate 7:2:1 (W/W)), 29.1 mg/g; in data set [1] (in diisopropyl adipate), 1.21 mg/g; in data set [1] (in dimethyl succinate), 63.18 mg/g. Besides, the “TAZAROTENE SOLUBILITY” value was determined as 0.75 mg/g in data set [1] (in isopropyl myristate); 0.16 mg/g in data set [1] (in medium chain triglycerides); 138.04 mg/g in data set [1] (in propyl acetate); 0.0054 mg/g in data set [1] (in propylene glycol); 5.6 mg/g in data set [1] (propylene glycol and diisopropyl adipate 2:0 (W/W)); 1.27 mg/g in data set [1] (propylene glycol and dimethyl succinate 2:1 (W/W)). Moreover, the “TAZAROTENE SOLUBILITY” value in data set [1] (propylene glycol and isopropyl myristate 2:1 (W/W)) worked out at 6.0 mg/g; in data set [1] (propylene glycol and propyl acetate 2:1 (W/W)), 1.55 mg/g. In data set [1] (selected ratios of carboxylate esters to monohydric aliphatic alcohol), the “solubility for tazarotene in combined solvent systems” value is listed as “at least 25 mg/g”. Further, the “Reduction in Tazarotene concentration after 8 weeks at 40° C. (% degradation relative to baseline tazarotene)” value in data set [2] (0.05% tazarotene in ethanol/20% propylene glycol/0.6% HPC, antioxidant: none) turned out to be 5%; in data set [2] (antioxidant: 0.20% BHT) it was 5%; in data set [2] (antioxidant: 0.20% Dl-Alpha Tocopherol), 5%; in data set [2] (antioxidant: 0.20% propyl gallete), 1%; in data set [2] (antioxidant: 0.20% sodium metabisulfite (SMBS)), 8%; in data set [2] (antioxidant: 0.20% sodium nitrate), 10%. Moreover, the results for the “Reduction in Tazarotene concentration after 8 weeks at 40° C. (% degradation relative to baseline tazarotene)” value in data set [2] (antioxidant: 0.20% sodium sulfite) and in data set [2] (antioxidant: 0.20% tocopherol) were 10% and 5%, respectively. The “tazarotene degradation over 13 weeks at 40° C.” value in data set [2] (ethanol and 0.05% tazarotene, without magnesium chloride or antioxidant) came to 5%; in data set [2] (ethanol, 0.6% magnesium chloride, 0.05% tazarotene, sealed amber glass), 13%; in data set [2] (ethanol, 0.6% magnesium chloride, 0.2% sodium metabisulfite, 0.05% tazarotene), 3%. The “stability when added in combination versus each drug alone” value in data set [3] (compositions of Table 9) is “more stable”. For the same molecule, the “stability in compositions of Table 9” value in data set [3] (sealed amber glass) is given as “stable after 18 months”. Further, the “tazarotene degradation when stored for 12 months at room temperature” value in data set [4] is “less than 7%”. Also, the lipophilicity (log P) (commonly a log measure of how a compound divides between an organic and an aqueous phase) in data set [5] is given as approximately 4.3. Besides, the “stability when added in combination versus alone” value in data set [6] (compositions of Table 13-1) is “more stable”. Further, the “stability in single API and dual API compositions” value in data set [6] (compositions of Table 13-1 (FIGS. 8A-8B)) was “stable”.
As for `C[C@H]1c2cccc(O)c2C(=O)C2=C(O)[C@]3(O)C(=O)C(C(N)=O)=C(O)[C@@H](N(C)C)[C@@H]3[C@@H](O)[C@@H]21` [doxycycline, (4S,4aR,5S,5aR,6R,12aS)-4-(dimethylamino)-3,5,10,12,12a-pentahydroxy-6-methyl-1,11-dioxo-1,4,4a,5,5a,6,11,12a-octahydrotetracene-2-carboxamide], the “average MIC90” value in data set [7] is 8 µg/mL. In addition, the “Log P” value in data set [5] (free base form) is listed as “about −0.02”.
`CC[C@H]1OC(=O)[C@H](C)[C@@H](O[C@H]2C[C@@](C)(OC)[C@@H](O)[C@H](C)O2)[C@H](C)[C@@H](O[C@@H]2O[C@H](C)C[C@H](N(C)C)[C@H]2O)[C@](C)(O)C[C@@H](C)C(=O)[C@H](C)[C@@H](O)[C@]1(C)O` [erythromycin]: the “average MIC90” value in data set [7] is approximately 512 µg/mL.
On to `COc1ccc(-c2ccc3cc(C(=O)O)ccc3c2)cc1C12CC3CC(CC(C3)C1)C2` [Adapalene, 6-[3-(1-adamantyl)-4-methoxy-phenyl]naphthalene-2-carboxylic acid], for which the “log P” value in data set [5] is recorded as “approximately 6”.
